The data set is described as follows: Dissolving the active agent in the capsule fill (glycerol monocaprylocaprate, BHT). To be noted: 20-23° C., stirred. Format: physicochemical. From the text: Another advantage of the process as herein disclosed is that it is highly reproducible and robust independently of the water content of the active agent. […] However, when the active agent has a water content higher than 0.05% measured by Karl Fischer titration, the components of the fill are completely dissolved at the same range of temperatures. Furthermore, the inventors have been able to establish an optimum range of working temperatures able to obtain a fill solution completely dissolved homogeneously with active agents with a water content higher than 0.05% w/w.
• Glycerol monocaprylocaprate was added to a stainless steel tank equipped with cooling jacket to keep it at a temperature of 20-23° C. It was stirred until completely dissolved. • Butylhydroxytoluene (BHT) was added to the tank and stirred until completely dissolved. • Finally dutasteride anhydrous was added to the tank. • The resulting solution was kept at a range of temperature of 20-23° C. […] Water content of the active agent and the range of temperatures were studied to avoid dissolution problems.

On to `C[C@]12C=CC(=O)N[C@@H]1CC[C@@H]1[C@@H]2CC[C@]2(C)[C@@H](C(=O)Nc3cc(C(F)(F)F)ccc3C(F)(F)F)CC[C@@H]12` [dutasteride anhydrous], for which the “dissolution of active agent in the fill solution” value is listed as “not possible to obtain a completely dissolved solution”.

The record behind these values is patent publication US20160287524A1, “PHARMACEUTICAL COMPOSITIONS COMPRISING AN ACTIVE AGENT” (GALENICUM HEALTH S.L., priority 2013, published 2016).
